Test [1] concerns the target T1, Glutathione transferase epsilon 2 (AgGSTε2) (Anopheles gambiae, UniProt Q9GPL8).
T1 construct: recombinant AgGSTε2 expressed from pET3a in E. coli BL21 (DE3) pLysS
T1 sequence (Q9GPL8 1-221): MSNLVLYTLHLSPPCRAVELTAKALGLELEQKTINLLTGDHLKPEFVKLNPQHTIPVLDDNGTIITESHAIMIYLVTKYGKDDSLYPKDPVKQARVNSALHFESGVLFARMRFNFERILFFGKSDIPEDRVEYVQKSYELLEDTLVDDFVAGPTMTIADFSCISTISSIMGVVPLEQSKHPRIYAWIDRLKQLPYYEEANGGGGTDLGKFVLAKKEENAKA
The test can be described thus: time-dependent inactivation of purified enzyme at […] (positive control), half-life […] min. In kind it is biochemical.

Test [2] deals with T1, Glutathione transferase epsilon 2 (AgGSTε2). The test is described as follows: time- and concentration-dependent inactivation of purified enzyme, GST activity (CDNB/GSH) assay; KI […], kinact […] min^-1. In kind it is biochemical.

As for `C=C(CC)C(=O)c1ccc(OCC(=O)O)c(Cl)c1Cl` [ETA, ethacrynic acid], in test [1], the “time-dependent inactivation of purified enzyme at 25 μM (positive control), half” value came out at 22 min.
Compound `O=c1ccc2c3c(c(O)cc2o1)C[C@@H](O)[C@@H](c1ccc(O)c(O)c1)O3` [Tral 1, epiphyllocoumarin] yielded a KI (inactivation) in test [2] of 7.5 ± 2.1 µM.
